This test concerns the target T1, human mAChR M1 (Homo sapiens, UniProt P11229).
T1 construct: host or cells: CHO-K1
T1 sequence (P11229 1-460): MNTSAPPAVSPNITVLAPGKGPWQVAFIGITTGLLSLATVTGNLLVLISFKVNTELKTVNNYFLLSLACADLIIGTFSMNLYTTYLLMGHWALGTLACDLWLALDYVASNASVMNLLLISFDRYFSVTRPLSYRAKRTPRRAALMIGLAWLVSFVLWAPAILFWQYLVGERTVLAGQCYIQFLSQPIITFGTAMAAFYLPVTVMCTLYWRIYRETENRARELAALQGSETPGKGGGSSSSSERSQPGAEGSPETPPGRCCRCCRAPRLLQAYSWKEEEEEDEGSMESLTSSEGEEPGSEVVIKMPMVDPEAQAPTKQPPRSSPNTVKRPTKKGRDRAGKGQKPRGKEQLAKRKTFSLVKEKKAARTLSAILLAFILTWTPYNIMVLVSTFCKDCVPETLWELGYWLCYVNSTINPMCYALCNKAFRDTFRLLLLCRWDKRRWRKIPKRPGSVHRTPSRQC
Nature of the test: mAChR M1 cell-based functional assay (calcium mobilization, Fluo-4, FDSS). The following applies: CHO-K1 cells stably expressing hM1; for Emax: EC20 acetylcholine response, read-out: Human M1 Emax; for EC50: positive allosteric modulator activity as increase in the EC20 acetylcholine response. Here is the method:
Chinese hamster ovary (CHO-K1) cells stably expressing rat (r)M1 were purchased from the American Type Culture Collection and cultured according to their indicated protocol. […] To make stable rM2, hM2, rM3, hM4, and rM4 cell lines for use in calcium mobilization assays, these cells also were stably transfected with a chimeric G-protein (Gqi5) (provided by B. R. Conklin, University of California, San Francisco) using Lipofectamine 2000. rM1, hM1, rM3, hM3, rM5, and hM5 cells were grown in Ham's F-12 medium containing 10% heat-inactivated fetal bovine serum (FBS), 20 mM HEPES, and 50 μg/mL G418 sulfate. rM2-Gqi5, hM2-Gqi5, and hM4-Gqi5 cells were grown in the same medium also containing 500 μg/mL Hygromycin B. Stable rM4-Gqi5 cells were grown in DMEM containing 10% heat-inactivated FBS, 20 mM HEPES, 400 μg/mL G418 sulfate, and 500 μg/mL Hygromycin B.
For high throughput measurement of agonist-evoked increases in intracellular calcium, CHO-K1 cells stably expressing muscarinic receptors were plated in growth medium lacking G418 and hygromycin at 15,000 cells/20 μL/well in Greiner 384-well black-walled, tissue culture (TC)-treated, clear-bottom plates (VWR). Cells were incubated overnight at 37° C. and 5% CO2. […] Compound master plates were formatted in an 11 point CRC format (1:3 dilutions) in 100% DMSO with a starting concentration of 10 mM using the BRAVO liquid handler (Agilent). Test compound CRCs were then transferred to daughter plates (240 nL) using the Echo acoustic plate reformatter (Labcyte, Sunnyvale, Calif.) and then diluted into assay buffer (40 μL) to a 2× stock using a Thermo Fisher Combi (Thermo Fisher Scientific, Waltham, Mass.).
Calcium flux was measured using the Functional Drug Screening System (FDSS) 6000 (Hamamatsu Corporation, Tokyo, Japan) as an increase in the fluorescent static ratio. Compounds were applied to cells (20 μL, 2×) using the automated system of the FDSS 6000 at 4 s into the 300 s protocol and the data were collected at 1 Hz. […] Agonist activity was analyzed as a concentration-dependent increase in calcium mobilization upon compound addition. Positive allosteric modulator activity was analyzed as a concentration-dependent increase in the EC20 acetylcholine response. Antagonist activity was analyzed as a concentration-dependent decrease in the EC80 acetylcholine response. Concentration-response curves were generated using a four-parameter logistical equation in XLfit curve fitting software (IDBS, Bridgewater, N.J.) for Excel (Microsoft, Redmond, Wash.) or Prism (GraphPad Software, Inc., San Diego, Calif.).
The compound numbers correspond to the compound numbers used in Table 1.

`Cc1nc(-c2ccc(Cc3cc(C(=O)NC4CC5(COC5)C4)nc4sccc34)cc2)co1` [Compound 139, 4-[[4-(2-methyloxazol-4-yl)phenyl]methyl]-N-(2-oxaspiro[3.3]heptan-6-yl)thieno[2,3-b]pyridine-6-carboxamide]: the maximal effect (Emax) turned out to be 60.5% and the EC50 was 390 nM.
In the case of `Cn1ccc(-c2ccc(Cc3cc(C(=O)N[C@H]4CCCC[C@@H]4O)nc4sccc34)cn2)n1` [Compound 101, N-[(1S,2S)-2-hydroxycyclohexyl]-4-[[6-(1-methylpyrazol-3-yl)-3-pyridyl]methyl]thieno[2,3-b]pyridine-6-carboxamide], the Emax worked out at 67.2% and the EC50 came out at 2660 nM.
As for `Cn1cc(-c2ccc(Cc3cc(C(=O)NC4CCOC(C)(C)C4)nc4sccc34)cn2)cn1` (stereo not shown) [Compound 115, N-(2,2-dimethyltetrahydropyran-4-yl)-4-[[6-(1-methylpyrazol-4-yl)-3-pyridyl]methyl]thieno[2,3-b]pyridine-6-carboxamide], the Emax was 59.7% and the concentration giving a half-maximal response (EC50) came out at 50 nM.
With `Cn1ccc(-c2ccc(Cc3cc(C(=O)NCC4CCOC4)nc4sccc34)cn2)n1` (stereo not shown) [Compound 108, 4-[[6-(1-methylpyrazol-3-yl)-3-pyridyl]methyl]-N-(tetrahydrofuran-3-ylmethyl)thieno[2,3-b]pyridine-6-carboxamide], the Emax is 59.4% and the EC50 is 150 nM.
In the same order, the values of `Cn1ccc2c(Cc3ccc(-c4cscn4)cc3)cc(C(=O)N[C@H]3CCCC[C@@H]3O)nc21` [Compound 22, N-[(1S,2S)-2-hydroxycyclohexyl]-1-methyl-4-[(4-thiazol-4-ylphenyl)methyl]pyrrolo[2,3-b]pyridine-6-carboxamide] are 63.3% and 40 nM.
For `CCn1ccc2c(Cc3ccc(-n4cccn4)cc3)cc(C(=O)NC3CC4(COC4)C3)nc21` [Compound 12, 1-ethyl-N-(2-oxaspiro[3.3]heptan-6-yl)-4-[(4-pyrazol-1-ylphenyl)methyl]pyrrolo[2,3-b]pyridine-6-carboxamide], the Emax is 72.3% and the EC50 is 200 nM.
Taken in the same sequence, the figures for `Cn1ccc2c(Cc3ccc(-c4nccs4)cc3)cc(C(=O)NC3CCOCC3(C)C)nc21` (stereo not shown) [Compound 67] were 61.2% and 1390 nM.
Taken in the same sequence, the figures for `O=C(N[C@H]1CCOC1)c1cc(Cc2ccc(-n3cccn3)cc2)c2ccsc2n1` [Compound 77, 4-[(4-pyrazol-1-ylphenyl)methyl]-N-[(3S)-tetrahydrofuran-3-yl]thieno[2,3-b]pyridine-6-carboxamide] were 69.6% and 390 nM.
As for `Cn1cc(-c2ccc(Cc3cc(C(=O)NC4CC(F)C4)nc4sccc34)cn2)cn1` (stereo not shown) [Compound 125, N-(3-fluorocyclobutyl)-4-[[6-(1-methylpyrazol-4-yl)-3-pyridyl]methyl]thieno[2,3-b]pyridine-6-carboxamide], the Emax was 58.6% and the half-maximal effective concentration (EC50) was found to be 940 nM.
In the same order, the values of `CC1COCCC1NC(=O)c1cc(Cc2ccc(-c3cnn(C)c3)nc2)c2ccsc2n1` (stereo not shown) [Compound 118, 4-[[6-(1-methylpyrazol-4-yl)-3-pyridyl]methyl]-N-(3-methyltetrahydropyran-4-yl)thieno[2,3-b]pyridine-6-carboxamide] are 52.2% and 70 nM.
Consider `Cn1ccc(-c2ccc(Cc3cc(C(=O)NC4(C)COC4)nc4c3ccn4C)cn2)n1` [Compound 152, 1-methyl-N-(3-methyloxetan-3-yl)-4-[[6-(1-methylpyrazol-3-yl)-3-pyridyl]methyl]pyrrolo[2,3-b]pyridine-6-carboxamide], for which the Emax was found to be 45.5% and the EC50 is > 10000 nM.
Taken in the same sequence, the figures for `Cn1ccc2c(Cc3ccc(-c4nccs4)cc3)cc(C(=O)NCC3CCOCC3)nc21` [Compound 68, 1-methyl-N-(tetrahydropyran-4-ylmethyl)-4-[(4-thiazol-2-ylphenyl)methyl]pyrrolo[2,3-b]pyridine-6-carboxamide] were 37.9% and 1450 nM.
In the same order, the values of `COCC(C)NC(=O)c1cc(Cc2ccc(-c3ccn(C)n3)nc2)c2ccsc2n1` (stereo not shown) [Compound 112, N-(2-methoxy-1-methyl-ethyl)-4-[[6-(1-methylpyrazol-3-yl)-3-pyridyl]methyl]thieno[2,3-b]pyridine-6-carboxamide] are 59.5% and 390 nM.
On to `Cn1ncc2c(Cc3ccc(-n4cccn4)cc3)cc(C(=O)NC3CCOCC3)nc21` [Compound 5, 1-methyl-4-[(4-pyrazol-1-ylphenyl)methyl]-N-tetrahydropyran-4-yl-pyrazolo[3,4-b]pyridine-6-carboxamide], for which the Emax stood at 67.9% and the EC50 turned out to be 5940 nM.
In the same order, the values of `Cn1ccc2c(Cc3ccc(-c4nccs4)cc3)cc(C(=O)NC3CC4(COC4)C3)nc21` [Compound 62, 1-methyl-N-(2-oxaspiro[3.3]heptan-6-yl)-4-[(4-thiazol-2-ylphenyl)methyl]pyrrolo[2,3-b]pyridine-6-carboxamide] are 60.6% and 870 nM.
In the same order, the values of `CC(NC(=O)c1cc(Cc2ccc(-c3ccn(C)n3)nc2)c2ccn(C)c2n1)C1CCCO1` (stereo not shown) [Compound 157, 1-methyl-4-[[6-(1-methylpyrazol-3-yl)-3-pyridyl]methyl]-N-(1-tetrahydrofuran-2-ylethyl)pyrrolo[2,3-b]pyridine-6-carboxamide] are 72.7% and 1270 nM.
Taken in the same sequence, the figures for `Cn1ccc2c(Cc3ccc(-c4cscn4)cc3)cc(C(=O)NC3CC4(COC4)C3)nc21` [Compound 23, 1-methyl-N-(2-oxaspiro[3.3]heptan-6-yl)-4-[(4-thiazol-4-ylphenyl)methyl]pyrrolo[2,3-b]pyridine-6-carboxamide] were 75.4% and 140 nM.
Regarding `Cn1ccc(-c2ccc(Cc3cc(C(=O)NC4CCOCC4(C)C)nc4c3ccn4C)cn2)n1` (stereo not shown) [Compound 147], the Emax is 81.6% and the concentration giving a half-maximal response (EC50) worked out at 190 nM.
Taken in the same sequence, the figures for `O=C(N[C@H]1CCOC[C@@H]1O)c1cc(Cc2ccc(-n3cccn3)cc2)c2ccsc2n1` [Compound 70] were 47.8% and 10 nM.
In the same order, the values of `Cn1ccc2c(Cc3ccc(-n4cccn4)cc3)cc(C(=O)NC3CC4(COC4)C3)nc21` [Compound 19, 1-methyl-N-(2-oxaspiro[3.3]heptan-6-yl)-4-[(4-pyrazol-1-ylphenyl)methyl]pyrrolo[2,3-b]pyridine-6-carboxamide] are 68.7% and 110 nM.
For the compound `Cc1nc(-c2ccc(Cc3cc(C(=O)NCC4CCOC4)nc4sccc34)cc2)co1` (stereo not shown) [Compound 138, 4-[[4-(2-methyloxazol-4-yl)phenyl]methyl]-N-(tetrahydrofuran-3-ylmethyl)thieno[2,3-b]pyridine-6-carboxamide], the Emax was 59.5% and the EC50 stood at 3150 nM.
As for `Cn1ccc(-c2ccc(Cc3cc(C(=O)N[C@H]4CCOC[C@@H]4O)nc4c3ccn4C)cc2)n1` [Compound 37, N-[(3R,4S)-3-hydroxytetrahydropyran-4-yl]-1-methyl-4-[[4-(1-methylpyrazol-3-yl)phenyl]methyl]pyrrolo[2,3-b]pyridine-6-carboxamide], the Emax stood at 76.7% and the EC50 was determined as 60 nM.
Turning to `Cn1ccc(-c2ccc(Cc3cc(C(=O)NC4CCOCC4)nc4c3ccn4C)cn2)n1` [Compound 145, 1-methyl-4-[[6-(1-methylpyrazol-3-yl)-3-pyridyl]methyl]-N-tetrahydropyran-4-yl-pyrrolo[2,3-b]pyridine-6-carboxamide], the Emax stood at 77.6% and the EC50 stood at 470 nM.

For orientation: Emax means the size of the effect at its maximum, as opposed to the concentration needed. The EC50 is the concentration at which the effect is half-maximal.

The values are drawn from US10899759B2, “Positive allosteric modulators of the muscarinic acetylcholine receptor M1” (Vanderbilt University, priority 2016, dated 2021).
